{
  "source": "ChEMBL document CHEMBL1146436",
  "about": "“Bioactive alkaloids from Illigera luzonensis” (1997)",
  "key": {"[1]": {"assay": "Antiplatelet activity against ADP-induced rabbit platelet aggregation assessed as platelet aggregation at 100 ug/ml preincubated for 3 mins by turbidimetric method relative to control", "format": "functional, Oryctolagus cuniculus"}, "[2]": {"assay": "Antiplatelet activity against arachidonic acid-induced rabbit platelet aggregation assessed as platelet aggregation at 100 ug/ml preincubated for 3 mins by turbidimetric method relative to control", "format": "functional, Oryctolagus cuniculus"}, "[3]": {"assay": "Antiplatelet activity against collagen-induced rabbit platelet aggregation assessed as platelet aggregation at 100 ug/ml preincubated for 3 mins by turbidimetric method relative to control", "format": "functional, Oryctolagus cuniculus"}, "[4]": {"assay": "Antiplatelet activity against PAF-induced rabbit platelet aggregation assessed as platelet aggregation at 100 ug/ml preincubated for 3 mins by turbidimetric method relative to control", "format": "functional, Oryctolagus cuniculus"}, "[5]": {"assay": "Antiplatelet activity against arachidonic acid-induced rabbit platelet aggregation assessed as platelet aggregation at 20 ug/ml preincubated for 3 mins by turbidimetric method relative to control", "format": "functional, Oryctolagus cuniculus"}, "[6]": {"assay": "Antiplatelet activity against arachidonic acid-induced rabbit platelet aggregation assessed as platelet aggregation at 10 ug/ml preincubated for 3 mins by turbidimetric method relative to control", "format": "functional, Oryctolagus cuniculus"}, "[7]": {"assay": "Antiplatelet activity against arachidonic acid-induced rabbit platelet aggregation assessed as platelet aggregation at 5 ug/ml preincubated for 3 mins by turbidimetric method relative to control", "format": "functional, Oryctolagus cuniculus"}, "[8]": {"assay": "Antiplatelet activity against arachidonic acid-induced rabbit platelet aggregation assessed as platelet aggregation at 2 ug/ml preincubated for 3 mins by turbidimetric method relative to control", "format": "functional, Oryctolagus cuniculus"}, "Aorta [9]": {"tested_on": "Aorta", "assay": "Vasorelaxant activity against 3 uM norepinephrine -induced phasic contractions in rat thoracic aorta assessed as muscle contractions at 1 uM pretreated for 15 mins before norepinephrine administration relative to control", "format": "functional", "design": "scale not given: the % may be the effect or the level left"}, "Aorta [10]": {"tested_on": "Aorta", "assay": "Vasorelaxant activity against 3 uM norepinephrine -induced tonic contractions in rat thoracic aorta assessed as muscle contractions at 1 uM pretreated for 15 mins before norepinephrine administration relative to control", "format": "functional", "design": "scale not given: the % may be the effect or the level left"}, "[11]": {"assay": "Antiplatelet activity against arachidonic acid-induced rabbit platelet aggregation assessed as platelet aggregation at 50 ug/ml preincubated for 3 mins by turbidimetric method relative to control", "format": "functional, Oryctolagus cuniculus"}, "Aorta [12]": {"tested_on": "Aorta", "assay": "Vasorelaxant activity against 80 mM potassium-induced contractions in rat thoracic aorta assessed as muscle contractions at 100 ug/mL pretreated for 15 mins before potassium administration relative to control", "format": "functional", "design": "scale not given: the % may be the effect or the level left"}, "Aorta [13]": {"tested_on": "Aorta", "assay": "Vasorelaxant activity against 3 uM norepinephrine -induced phasic contractions in rat thoracic aorta assessed as muscle contractions at 100 ug/mL pretreated for 15 mins before norepinephrine administration relative to control", "format": "functional", "design": "scale not given: the % may be the effect or the level left"}, "Aorta [14]": {"tested_on": "Aorta", "assay": "Vasorelaxant activity against 3 uM norepinephrine -induced tonic contractions in rat thoracic aorta assessed as muscle contractions at 100 ug/mL pretreated for 15 mins before norepinephrine administration relative to control", "format": "functional", "design": "scale not given: the % may be the effect or the level left"}, "Aorta [15]": {"tested_on": "Aorta", "assay": "Effect on resting tension in rat thoracic aorta at 100 ug/mL pretreated for 15 mins", "format": "functional, tissue-based"}, "[16]": {"assay": "Antiplatelet activity against ADP-induced rabbit platelet aggregation assessed as platelet aggregation at 25 ug/ml preincubated for 3 mins by turbidimetric method relative to control", "format": "functional, Oryctolagus cuniculus"}, "[17]": {"assay": "Antiplatelet activity against arachidonic acid-induced rabbit platelet aggregation assessed as platelet aggregation at 25 ug/ml preincubated for 3 mins by turbidimetric method relative to control", "format": "functional, Oryctolagus cuniculus"}, "[18]": {"assay": "Antiplatelet activity against collagen-induced rabbit platelet aggregation assessed as platelet aggregation at 25 ug/ml preincubated for 3 mins by turbidimetric method relative to control", "format": "functional, Oryctolagus cuniculus"}, "[19]": {"assay": "Antiplatelet activity against PAF-induced rabbit platelet aggregation assessed as platelet aggregation at 25 ug/ml preincubated for 3 mins by turbidimetric method relative to control", "format": "functional, Oryctolagus cuniculus"}, "[20]": {"assay": "Antiplatelet activity against arachidonic acid-induced rabbit platelet aggregation assessed as platelet aggregation at 1 ug/ml preincubated for 3 mins by turbidimetric method relative to control", "format": "functional, Oryctolagus cuniculus"}, "Aorta [21]": {"tested_on": "Aorta", "assay": "Vasorelaxant activity against 80 mM potassium-induced contractions in rat thoracic aorta assessed as muscle contractions at 1 uM pretreated for 15 mins before potassium administration relative to control", "format": "functional", "design": "scale not given: the % may be the effect or the level left"}},
  "note": "The source made the active and inactive calls. The calls are words filed in the database; no cut-off is given here.",
  "data": [
    {"smiles": "COc1cc2c(cc1OC)-c1c3c(cc4c1[C@H](C2)N(C)CC4)OCO3", "note": "[DICENTRINE]", "values": [
      {"measurement": "Activity", "setting": "[1]", "value": 4, "unit": "%"},
      {"measurement": "Activity", "setting": "[2]", "value": 0, "unit": "%"},
      {"measurement": "Activity", "setting": "[3]", "value": 3.2, "unit": "%"},
      {"measurement": "Activity", "setting": "[4]", "value": 7.6, "unit": "%"},
      {"measurement": "Activity", "setting": "[5]", "value": 0, "unit": "%"},
      {"measurement": "Activity", "setting": "[6]", "value": 55.1, "unit": "%"},
      {"measurement": "Activity", "setting": "[7]", "value": 77.7, "unit": "%"},
      {"measurement": "Activity", "setting": "[8]", "value": 83.4, "unit": "%"}
    ]},
    {"smiles": "COc1c(O)ccc2c1-c1c(OC)c(O)cc3c1[C@H](C2)NCC3", "note": "[HERNOVINE]", "values": [
      {"measurement": "Activity", "setting": "[1]", "value": 87.2, "unit": "%"},
      {"measurement": "Activity", "setting": "[2]", "value": 47, "unit": "%"},
      {"measurement": "Activity", "setting": "[3]", "value": 0, "unit": "%"},
      {"measurement": "Activity", "setting": "[4]", "value": 64.1, "unit": "%"}
    ]},
    {"smiles": "COc1cc2nc(N3CCN(C(=O)c4ccco4)CC3)nc(N)c2cc1OC", "note": "[PRAZOSIN]", "values": [
      {"measurement": "Activity", "setting": "Aorta [9]", "value": 0, "unit": "%"},
      {"measurement": "Activity", "setting": "Aorta [10]", "value": 0, "unit": "%"}
    ]},
    {"smiles": "COc1ccc2c(c1OC)-c1c3c(cc4c1[C@H](C2)N(C)CC4)OCO3", "values": [
      {"measurement": "Activity", "setting": "[1]", "value": 47.9, "unit": "%"},
      {"measurement": "Activity", "setting": "[2]", "value": 0, "unit": "%"},
      {"measurement": "Activity", "setting": "[3]", "value": 0, "unit": "%"},
      {"measurement": "Activity", "setting": "[4]", "value": 75.1, "unit": "%"},
      {"measurement": "Activity", "setting": "[11]", "value": 0, "unit": "%"},
      {"measurement": "Activity", "setting": "[5]", "value": 50.4, "unit": "%"},
      {"measurement": "Activity", "setting": "[6]", "value": 72.5, "unit": "%"},
      {"measurement": "Activity", "setting": "[7]", "value": 83.4, "unit": "%"}
    ]},
    {"smiles": "COc1cc2c(cc1OC)-c1c3c(cc4ccnc(c14)C2=O)OCO3", "note": "[DICENTRINONE]", "values": [
      {"measurement": "Activity", "setting": "Aorta [12]", "value": 111.1, "unit": "%"},
      {"measurement": "Activity", "setting": "Aorta [13]", "value": 89.7, "unit": "%"},
      {"measurement": "Activity", "setting": "Aorta [14]", "value": 64, "unit": "%"},
      {"measurement": "Activity", "setting": "Aorta [15]", "value": "inactive"}
    ]},
    {"smiles": "COc1cc2c(cc1O)C[C@@H]1NCCc3cc4c(c-2c31)OCO4", "note": "[ACTINODAPHNINE]", "values": [
      {"measurement": "Activity", "setting": "[1]", "value": 0, "unit": "%"},
      {"measurement": "Activity", "setting": "[2]", "value": 0, "unit": "%"},
      {"measurement": "Activity", "setting": "[3]", "value": 0, "unit": "%"},
      {"measurement": "Activity", "setting": "[4]", "value": 0, "unit": "%"},
      {"measurement": "Activity", "setting": "[11]", "value": 0, "unit": "%"},
      {"measurement": "Activity", "setting": "[5]", "value": 42.7, "unit": "%"},
      {"measurement": "Activity", "setting": "[6]", "value": 60.5, "unit": "%"},
      {"measurement": "Activity", "setting": "[7]", "value": 80.3, "unit": "%"},
      {"measurement": "Activity", "setting": "Aorta [12]", "value": 41.9, "unit": "%"},
      {"measurement": "Activity", "setting": "Aorta [13]", "value": 40.6, "unit": "%"},
      {"measurement": "Activity", "setting": "Aorta [14]", "value": 15.5, "unit": "%"},
      {"measurement": "Activity", "setting": "Aorta [15]", "value": "inactive"}
    ]},
    {"smiles": "COc1ccc2c(c1O)-c1c3c(cc4c1[C@H](C2)N(C)CC4)OCO3", "note": "[(S)-BULBOCAPNINE]", "values": [
      {"measurement": "Activity", "setting": "[1]", "value": 86.8, "unit": "%"},
      {"measurement": "Activity", "setting": "[2]", "value": 89.3, "unit": "%"},
      {"measurement": "Activity", "setting": "[3]", "value": 83.2, "unit": "%"},
      {"measurement": "Activity", "setting": "[4]", "value": 86.6, "unit": "%"}
    ]},
    {"smiles": "CC(=O)Oc1ccccc1C(=O)O", "note": "[ASPIRIN]", "values": [
      {"measurement": "Activity", "setting": "[2]", "value": 0, "unit": "%"},
      {"measurement": "Activity", "setting": "[16]", "value": 77.9, "unit": "%"},
      {"measurement": "Activity", "setting": "[17]", "value": 0, "unit": "%"},
      {"measurement": "Activity", "setting": "[18]", "value": 87.8, "unit": "%"},
      {"measurement": "Activity", "setting": "[19]", "value": 90.4, "unit": "%"}
    ]},
    {"smiles": "COc1cc2c(cc1O)C[C@H]1c3c(cc4c(c3-2)OCO4)CCN1C", "note": "[CASSYTHICINE]", "values": [
      {"measurement": "Activity", "setting": "[1]", "value": 0, "unit": "%"},
      {"measurement": "Activity", "setting": "[2]", "value": 0, "unit": "%"},
      {"measurement": "Activity", "setting": "[3]", "value": 0, "unit": "%"},
      {"measurement": "Activity", "setting": "[4]", "value": 68.1, "unit": "%"},
      {"measurement": "Activity", "setting": "[5]", "value": 0, "unit": "%"},
      {"measurement": "Activity", "setting": "[6]", "value": 16.2, "unit": "%"},
      {"measurement": "Activity", "setting": "[7]", "value": 51.4, "unit": "%"},
      {"measurement": "Activity", "setting": "Aorta [12]", "value": 112.9, "unit": "%"},
      {"measurement": "Activity", "setting": "Aorta [13]", "value": 225, "unit": "%"},
      {"measurement": "Activity", "setting": "Aorta [14]", "value": 98.9, "unit": "%"},
      {"measurement": "Activity", "setting": "[8]", "value": 69.1, "unit": "%"},
      {"measurement": "Activity", "setting": "[20]", "value": 82.5, "unit": "%"}
    ]},
    {"smiles": "COc1ccc2c(c1O)-c1c3c(cc4c1[C@H](C2)NCC4)OCO3", "note": "[LAUNOBINE]", "values": [
      {"measurement": "Activity", "setting": "[1]", "value": 84.2, "unit": "%"},
      {"measurement": "Activity", "setting": "[2]", "value": 11.8, "unit": "%"},
      {"measurement": "Activity", "setting": "[3]", "value": 29.9, "unit": "%"},
      {"measurement": "Activity", "setting": "[4]", "value": 70.7, "unit": "%"}
    ]},
    {"smiles": "COC(=O)C1=C(C)NC(C)=C(C(=O)OC)C1c1ccccc1[N+](=O)[O-]", "note": "[NIFEDIPINE]", "values": [
      {"measurement": "Activity", "setting": "Aorta [21]", "value": 0, "unit": "%"}
    ]},
    {"smiles": "O=C1c2ccccc2-c2c3c(cc4ccnc1c24)OCO3", "note": "[LIRIODENINE]", "values": [
      {"measurement": "Activity", "setting": "[16]", "value": 5.4, "unit": "%"},
      {"measurement": "Activity", "setting": "[17]", "value": 40.5, "unit": "%"},
      {"measurement": "Activity", "setting": "[18]", "value": 5.3, "unit": "%"},
      {"measurement": "Activity", "setting": "[19]", "value": 84.1, "unit": "%"}
    ]}
  ]
}
